Measurements as given in patent US7671040B2, “Chemotherapeutic antineoplastic treatment” (Laboratoires Goemar S.A., priority 2003, dated 2010).
Several values for one entry are separate records, joined by “and”; a condition that tells them apart may be missing. Equal entries are not always repeated. Where two headings read alike, the source gives them in different places.

Tests used:
[1] = test system: cells in peripheral blood; conditions: for Number of cells, peripheral blood, average: average of group; for Number of cells, peripheral blood, individual mice: single mice
Description: The injection was an intraperitoneally injection.
The peripheral blood of the mice of the first and the second groups of mice under experimentation according to a) was used to determine the total number of all cells on day 0 and then on each of the following days until day 10 on several mice selected from each of the first and the second groups.
The number of cells in peripheral blood has been evaluated as hereafter disclosed.

cells in bone marrow = conditions: for Number of cells, bone marrow, average: average of group; for Number of cells, bone marrow, individual mice: single mice
Description: A first group and a second group comprising each 50 mice of the Balb/c type were tested.
On day 0 and then each day after day 0, during 10 days, the total number of cells per ml in bone marrow was determined on several mice of each of both first and second groups.
The number of cells in bone marrow was evaluated as hereafter disclosed. The mice were killed by cervical dislocation, placed on their back on cutting board and soaked with ethanol. A long traverse cut through the skin in the middle of the abdominal area was followed by reflecting the skin from the hindquarters and the hind legs. The legs were separated from the body at the hip joint and the feet were removed. The legs were placed in a Petri dish obtaining RPMI 1640 medium (Sigma). All muscle tissue from the femurs and tibia was removed and the bones were separated (only femurs were used). The epiphyses were cut off on both ends, the bone end was punctured with a 23 G needle and flushed out with 3 ml of warm (22° C.) RPMI 1640 medium. The large debris and cell clumps were removed by layering the cell suspension over 3 ml of heat-inactivated fetal calf serum (FCS; Hyclone, Logan, Utah, USA) for 10 minutes on ice. The cells collected from the top of FCS were washed once by centrifugation at 300×g for 10 minutes at 4° C. and kept in RMPI 1640 medium containing 5% FCS. Five microliters of the cell suspension was mixed with 95 ul of Turk's solution (a mixture of 3 ml concentrated acetic acid, 3 ml of 1% crystal violet in water, Fernandez-Botran and Vetvicka “Methods in Cellular Immunology”, CRC Press, Boca Raton, 1995), and incubated for 5 minutes at room temperature. One drop of this solution has been dropped into a hemocytometer and the cells were counted under an optical microscope.
The result of the counting is expressed in number of cells per femur×10^6.

O=P1(N(CCCl)CCCl)NCCCO1 (stereo not drawn) [cyclophosphamide]
Number of cells, peripheral blood, average ([1]; day 1): 3.6 per ml × 10^5
Number of cells, peripheral blood, average ([1]; day 2): 3.6 per ml × 10^5
Number of cells, peripheral blood, individual mice ([1]; day 2): 6.6 per ml × 10^5 and 6.0 per ml × 10^5 and 6.3 per ml × 10^5
Number of cells, peripheral blood, average ([1]; day 3): 4.2 per ml × 10^5
Number of cells, peripheral blood, individual mice ([1]; day 3): 3.8 per ml × 10^5 (2×) and 5.1 per ml × 10^5
Number of cells, peripheral blood, average ([1]; day 4): 5.1 per ml × 10^5
Number of cells, peripheral blood, average ([1]; day 5): 7.2 per ml × 10^5
Number of cells, peripheral blood, individual mice ([1]; day 5): 4.0 per ml × 10^5 and 9.6 per ml × 10^5 and 8.1 per ml × 10^5
Number of cells, peripheral blood, average ([1]; day 6): 6.5 per ml × 10^5
Number of cells, peripheral blood, individual mice ([1]; day 6): 7.8 per ml × 10^5 and 5.0 per ml × 10^5 and 6.7 per ml × 10^5
Number of cells, peripheral blood, average ([1]; day 7): 6.4 per ml × 10^5
Number of cells, peripheral blood, individual mice ([1]; day 7): 3.8 per ml × 10^5 and 7.3 per ml × 10^5 and 8.1 per ml × 10^5
Number of cells, peripheral blood, average ([1]; day 8): 7.2 per ml × 10^5
Number of cells, peripheral blood, individual mice ([1]; day 8): 4.1 per ml × 10^5 and 8.2 per ml × 10^5 and 9.3 per ml × 10^5
Number of cells, peripheral blood, average ([1]; day 9): 11.2 per ml × 10^5
Number of cells, peripheral blood, individual mice ([1]; day 9): 8.9 per ml × 10^5 and 11.9 per ml × 10^5 and 12.9 per ml × 10^5
Number of cells, peripheral blood, average ([1]; day 10): 29.2 per ml × 10^5
Number of cells, peripheral blood, individual mice ([1]; day 10): 23.8 per ml × 10^5 and 27.8 per ml × 10^5 and 35.9 per ml × 10^5
Number of cells, bone marrow, average (cells in bone marrow; day 1): 1.25 per femur × 10^6
Number of cells, bone marrow, individual mice (cells in bone marrow; day 1 after i.p. injection): 1 per femur × 10^6 and 1.2 per femur × 10^6 and 1.4 per femur × 10^6 (2×)
Number of cells, bone marrow, average (cells in bone marrow; day 2): 1.25 per femur × 10^6
Number of cells, bone marrow, individual mice (cells in bone marrow; day 2): 0.8 per femur × 10^6 and 2.0 per femur × 10^6 and 2.4 per femur × 10^6
Number of cells, bone marrow, average (cells in bone marrow; day 3): 3.6 per femur × 10^6
Number of cells, bone marrow, average (cells in bone marrow; day 4): 2.7 per femur × 10^6
Number of cells, bone marrow, average (cells in bone marrow; day 5): 4.7 per femur × 10^6
Number of cells, bone marrow, individual mice (cells in bone marrow; day 5): 2.1 per femur × 10^6 and 6.0 per femur × 10^6 and 6.1 per femur × 10^6
Number of cells, bone marrow, average (cells in bone marrow; day 6): 6.4 per femur × 10^6
Number of cells, bone marrow, individual mice (cells in bone marrow; day 6): 6.5 per femur × 10^6 and 5.7 per femur × 10^6 and 7.0 per femur × 10^6
Number of cells, bone marrow, average (cells in bone marrow; day 7): 8.1 per femur × 10^6
Number of cells, bone marrow, individual mice (cells in bone marrow; day 7): 9.0 per femur × 10^6 and 8.1 per femur × 10^6 and 7.3 per femur × 10^6
Number of cells, bone marrow, average (cells in bone marrow; day 8): 6.3 per femur × 10^6
Number of cells, bone marrow, individual mice (cells in bone marrow; day 8): 6.0 per femur × 10^6 and 6.2 per femur × 10^6 and 6.8 per femur × 10^6
Number of cells, bone marrow, average (cells in bone marrow; day 9): 8.2 per femur × 10^6
Number of cells, bone marrow, individual mice (cells in bone marrow; day 9): 8.0 per femur × 10^6 and 8.5 per femur × 10^6 and 8.2 per femur × 10^6
Number of cells, bone marrow, average (cells in bone marrow; day 10): 9.4 per femur × 10^6
Number of cells, bone marrow, individual mice (cells in bone marrow; day 10): 7.2 per femur × 10^6 and 10.8 per femur × 10^6 and 10.3 per femur × 10^6
